Reference: patent publication US20170037028A1 (BAYER PHARMA AKTIENGESELLSCHAFT, priority 2013, published 2017)
Read-outs that look alike come from different tables or passages of the source.

Molecular target: T1, GLUT1 (Homo sapiens, UniProt P11166)
T1 sequence (P11166 1-492): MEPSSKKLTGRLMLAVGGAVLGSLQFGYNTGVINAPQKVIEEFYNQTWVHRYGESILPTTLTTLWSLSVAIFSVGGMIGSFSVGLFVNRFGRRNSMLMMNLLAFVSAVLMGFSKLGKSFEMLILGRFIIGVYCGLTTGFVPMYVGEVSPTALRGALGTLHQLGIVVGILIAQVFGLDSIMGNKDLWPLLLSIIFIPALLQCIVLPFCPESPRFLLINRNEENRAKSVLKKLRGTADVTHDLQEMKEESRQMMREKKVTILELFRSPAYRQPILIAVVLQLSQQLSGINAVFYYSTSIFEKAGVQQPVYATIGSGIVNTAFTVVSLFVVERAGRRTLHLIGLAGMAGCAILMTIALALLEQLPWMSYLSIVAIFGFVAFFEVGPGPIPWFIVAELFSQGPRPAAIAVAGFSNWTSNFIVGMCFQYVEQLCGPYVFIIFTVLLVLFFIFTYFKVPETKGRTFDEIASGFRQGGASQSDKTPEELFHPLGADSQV
Assay: Indirect measurement of GLUT1 activity by quantification of intracellular ATP levels (glucose induced ATP increase)
Type: cell-based
Set-up: endogenous in cells; host or cells: DLD1 or CHO-K1
Settings: read-out: IC50 regarding glucose induced ATP increase (GLUT1 inhibition)
Summary of the method: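 DLD1 or CHO-K1 cells were starved overnight in glucose-free medium with 1% FCS, then combined with an oxidative phosphorylation inhibitor. GLUT1 activity was read as glucose-induced ATP increase, GLUT2 as fructose-induced. Intracellular ATP was quantified by CellTiter-Glo luminescence.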

Structure (SMILES)	IC50	IC50 (DLD1 cells, 0.1 mM glucose, 1 μM Rotenone, 15 min, CellTiter-Glo ATP readout, IC50 values standardized to cytochalasin B IC50 values)
COc1ccc(CCCn2nc(C)c(NC(=O)c3cc(C(N)=O)nc4ccccc34)c2C)cc1 [Example 284, N^4-{1-[3-(4-methoxyphenyl)propyl]-3,5-dimethyl-1H-pyrazol-4-yl}quinoline-2,4-dicarboxamide]	9 nM	
Cc1nn(Cc2ccncc2C#N)c(C)c1NC(=O)c1cc(C(N)=O)nc2cc(F)c(Cl)cc12 [Example 285, 6-chloro-N^4-{1-[(3-cyanopyridin-4-yl)methyl]-3,5-dimethyl-1H-pyrazol-4-yl}-7-fluoroquinoline-2,4-dicarboxamide]	3.4 nM	
Cc1nn(Cc2ccncc2C#N)c(C)c1NC(=O)c1cc(C(N)=O)nc2ccccc12 [Example 286, N^4-{1-[(3-cyanopyridin-4-yl)methyl]-3,5-dimethyl-1H-pyrazol-4-yl}quinoline-2,4-dicarboxamide]	35.6 nM	
Cc1c(NC(=O)c2cc(C(N)=O)nc3cc(F)c(Cl)cc23)c(C(F)(F)F)nn1Cc1ccncc1C#N [Example 287, 6-chloro-N^4-{1-[(3-cyanopyridin-4-yl)methyl]-5-methyl-3-(trifluoromethyl)-1H-pyrazol-4-yl}-7-fluoroquinoline-2,4-dicarboxamide]	4.8 nM	
Cc1c(NC(=O)c2cc(C(N)=O)nc3ccccc23)c(C(F)(F)F)nn1Cc1ccncc1C#N [Example 288, N^4-{1-[(3-cyanopyridin-4-yl)methyl]-5-methyl-3-(trifluoromethyl)-1H-pyrazol-4-yl}quinoline-2,4-dicarboxamide]	40.1 nM	
Cc1c(NC(=O)c2cc(C(N)=O)nc3ccccc23)c(C(F)(F)F)nn1Cc1ccc(C#N)nc1 [Example 289, N^4-{1-[(6-cyanopyridin-3-yl)methyl]-5-methyl-3-(trifluoromethyl)-1H-pyrazol-4-yl}quinoline-2,4-dicarboxamide]	21.5 nM	
Cc1c(NC(=O)c2cc(C(N)=O)nc3cc(F)ccc23)c(C(F)(F)F)nn1Cc1ccc(C#N)nc1 [Example 290, N^4-{1-[(6-cyanopyridin-3-yl)methyl]-5-methyl-3-(trifluoromethyl)-1H-pyrazol-4-yl}-7-fluoroquinoline-2,4-dicarboxamide]		31.7 nM
Cc1c(NC(=O)c2cc(C(N)=O)nc3cccc(F)c23)c(C(F)(F)F)nn1Cc1ccc(C#N)nc1 [Example 291, N^4-{1-[(6-cyanopyridin-3-yl)methyl]-5-methyl-3-(trifluoromethyl)-1H-pyrazol-4-yl}-5-fluoroquinoline-2,4-dicarboxamide]	6.9 nM	
Cc1nn(Cc2ccc(C#N)nc2)c(C)c1NC(=O)c1cc(C(N)=O)nc2cc(F)ccc12 [Example 292, N^4-{1-[(6-cyanopyridin-3-yl)methyl]-3,5-dimethyl-1H-pyrazol-4-yl}-7-fluoroquinoline-2,4-dicarboxamide]	17 nM	

The next lines start with results.

IC50	Structure (SMILES)	IC50 (DLD1 cells, 0.1 mM glucose, 1 μM Rotenone, 15 min, CellTiter-Glo ATP readout, IC50 values standardized to cytochalasin B IC50 values)
1.1 nM	COc1ccc(Cn2nc(C(F)(F)F)c(NC(=O)c3cc(C(N)=O)nc4ccccc34)c2C)cn1 [Example 280, N^4-{1-[(6-methoxypyridin-3-yl)methyl]-5-methyl-3-(trifluoromethyl)-1H-pyrazol-4-yl}quinoline-2,4-dicarboxamide]	
1.3 nM	COc1ccc(Cn2nc(C(F)(F)F)c(NC(=O)c3cc(C(N)=O)nc4cc(F)c(Cl)cc34)c2C)cn1 [Example 281, 6-chloro-7-fluoro-N^4-{1-[(6-methoxypyridin-3-yl)methyl]-5-methyl-3-(trifluoromethyl)-1H-pyrazol-4-yl}quinoline-2,4-dicarboxamide]	
3.2 nM	COc1ccc(Cn2nc(C)c(NC(=O)c3cc(C(N)=O)nc4ccccc34)c2C)cn1 [Example 282, N^4-{1-[(6-methoxypyridin-3-yl)methyl]-3,5-dimethyl-1H-pyrazol-4-yl}quinoline-2,4-dicarboxamide]	
1.2 nM	COc1ccc(Cn2nc(C)c(NC(=O)c3cc(C(N)=O)nc4cc(F)c(Cl)cc34)c2C)cn1 [Example 283, 6-chloro-7-fluoro-N^4-{1-[(6-methoxypyridin-3-yl)methyl]-3,5-dimethyl-1H-pyrazol-4-yl}quinoline-2,4-dicarboxamide]	
